Measurements published in PMC5218480 (PLoS ONE, 2017).

System: MV-4-11 cells
Assay: Gene expression microarray analysis (Affymetrix PrimeView) and GSEA
Assay type: cell-based, human
Design: RFU PODN (11730768_x_at) / Fold change /veh PODN (11730768_x_at) / RFU LINC00158 (11744669_a_at) / Fold change /veh LINC00158 (11744669_a_at) / RFU DUSP10 (11751237_a_at) / Fold change /veh DUSP10 (11751237_a_at) / RFU ID3 (11757404_x_at) / Fold change /veh ID3 (11757404_x_at) / RFU PLEKHG5 (11737974_s_at) / Fold change /veh PLEKHG5 (11737974_s_at) / RFU LRRC4B (11730491_at) / Fold change /veh LRRC4B (11730491_at) / RFU GIMAP4 (11747438_a_at) / Fold change /veh GIMAP4 (11747438_a_at) / RFU KRT8 (11758183_x_at) / Fold change /veh KRT8 (11758183_x_at) / RFU CNN1 (11734310_a_at) / Fold change /veh CNN1 (11734310_a_at) / RFU VPS37D (11726825_at) / Fold change /veh VPS37D (11726825_at) / RFU C10orf10 (11716522_x_at) / Fold change /veh C10orf10 (11716522_x_at) / RFU KIR2DL2 /// KIR2DL4 /// KIR2DL5A /// KIR2DL5B /// KIR2DS1 /// KIR2DS2 /// KIR2DS3 /// KIR2DS4 /// KIR3DL3 /// KIR3DL3 /// KIR3DS1 (11738374_at) / Fold change /veh KIR2DL2 /// KIR2DL4 /// KIR2DL5A /// KIR2DL5B /// KIR2DS1 /// KIR2DS2 /// KIR2DS3 /// KIR2DS4 /// KIR3DL3 /// KIR3DL3 /// KIR3DS1 (11738374_at) / RFU C1QL1 (11718748_at) / Fold change /veh C1QL1 (11718748_at) / RFU TMPRSS4 (11747572_a_at) / Fold change /veh TMPRSS4 (11747572_a_at) / RFU HAMP (11756126_x_at) / Fold change /veh HAMP (11756126_x_at) / RFU RNFT2 (11725882_a_at) / Fold change /veh RNFT2 (11725882_a_at) / RFU NR4A2 (11747474_a_at) / Fold change /veh NR4A2 (11747474_a_at) / RFU ABCC12 (11746883_a_at) / Fold change /veh ABCC12 (11746883_a_at) / RFU TMEM136 (11760407_x_at) / Fold change /veh TMEM136 (11760407_x_at) / RFU CLDN22 /// WWC2 (11732394_at) / Fold change /veh CLDN22 /// WWC2 (11732394_at) / RFU HLA-DPB1 (11760878_x_at) / Fold change /veh HLA-DPB1 (11760878_x_at) / RFU SPINT1 (11716480_a_at) / Fold change /veh SPINT1 (11716480_a_at) / RFU GAP43 (11754022_s_at) / Fold change /veh GAP43 (11754022_s_at) / RFU A4GNT (11735810_at) / Fold change /veh A4GNT (11735810_at) / RFU PRB3 (11715151_x_at) / Fold change /veh PRB3 (11715151_x_at) / RFU TUBB4B (11761932_at) / Fold change /veh TUBB4B (11761932_at) / RFU CAPN14 (11732068_a_at) / Fold change /veh CAPN14 (11732068_a_at) / RFU TMCC2 (11721928_a_at) / Fold change /veh TMCC2 (11721928_a_at) / RFU IRGQ (11745062_a_at) / Fold change /veh IRGQ (11745062_a_at) / RFU FAM174B (11720279_a_at) / Fold change /veh FAM174B (11720279_a_at) / RFU TMPRSS4 (11748680_a_at) / Fold change /veh TMPRSS4 (11748680_a_at) / RFU FAM212B (11763350_a_at) / Fold change /veh FAM212B (11763350_a_at) / RFU PLEKHG5 (11743358_a_at) / Fold change /veh PLEKHG5 (11743358_a_at) / RFU ZSCAN30 (11745921_a_at) / Fold change /veh ZSCAN30 (11745921_a_at) / RFU CMKLR1 (11741424_a_at) / Fold change /veh CMKLR1 (11741424_a_at) / RFU LOC101060620 /// MAPK8IP1 (11723275_at) / Fold change /veh LOC101060620 /// MAPK8IP1 (11723275_at) / RFU SPTSSB (11747773_x_at) / Fold change /veh SPTSSB (11747773_x_at) / RFU PRSS12 (11739890_at) / Fold change /veh PRSS12 (11739890_at) / RFU BIN1 (11741810_x_at) / Fold change /veh BIN1 (11741810_x_at) / RFU WNT11 (11732464_a_at) / Fold change /veh WNT11 (11732464_a_at) / RFU C10orf10 (11716521_a_at) / Fold change /veh C10orf10 (11716521_a_at) / RFU C5orf56 (11738089_at) / Fold change /veh C5orf56 (11738089_at) / RFU CYB561 (11721691_x_at) / Fold change /veh CYB561 (11721691_x_at) / RFU ANKRD19P (11752326_a_at) / Fold change /veh ANKRD19P (11752326_a_at) / RFU OR2T12 /// OR2T33 /// OR2T8 (11738714_s_at) / Fold change /veh OR2T12 /// OR2T33 /// OR2T8 (11738714_s_at) / RFU VCAN (11748164_a_at) / Fold change /veh VCAN (11748164_a_at) / RFU JSRP1 (11732532_at) / Fold change /veh JSRP1 (11732532_at) / RFU KRTAP10-11 (11738290_x_at) / Fold change /veh KRTAP10-11 (11738290_x_at) / RFU MYO3A (11730013_a_at) / Fold change /veh MYO3A (11730013_a_at) / RFU EBF3 (11725865_a_at) / Fold change /veh EBF3 (11725865_a_at) / RFU CAMK2N1 (11719241_x_at) / Fold change /veh CAMK2N1 (11719241_x_at) / RFU C5orf56 (11738088_a_at) / Fold change /veh C5orf56 (11738088_a_at) / RFU OLFML3 (11715873_a_at) / Fold change /veh OLFML3 (11715873_a_at) / RFU LOC100653217 /// NTM (11731650_a_at) / Fold change /veh LOC100653217 /// NTM (11731650_a_at) / RFU MAPK11 (11762145_a_at) / Fold change /veh MAPK11 (11762145_a_at) / RFU FIZ1 (11724087_x_at) / Fold change /veh FIZ1 (11724087_x_at) / RFU OASL (11726364_x_at) / Fold change /veh OASL (11726364_x_at) / RFU SOX15 (11748057_x_at) / Fold change /veh SOX15 (11748057_x_at) / RFU CD79A (11719716_a_at) / Fold change /veh CD79A (11719716_a_at) / RFU HIST1H1D (11736915_at) / Fold change /veh HIST1H1D (11736915_at) / RFU CASKIN2 (11723855_a_at) / Fold change /veh CASKIN2 (11723855_a_at) / RFU LOC730098 (11760151_x_at) / Fold change /veh LOC730098 (11760151_x_at) / RFU OR4N2 (11742367_at) / Fold change /veh OR4N2 (11742367_at) / RFU PRRT2 (11749266_a_at) / Fold change /veh PRRT2 (11749266_a_at) / RFU SNX32 (11753110_a_at) / Fold change /veh SNX32 (11753110_a_at) / RFU CDHR5 (11726645_a_at) / Fold change /veh CDHR5 (11726645_a_at) / RFU RCAN1 (11760418_a_at) / Fold change /veh RCAN1 (11760418_a_at) / RFU FAM167A (11723789_a_at) / Fold change /veh FAM167A (11723789_a_at) / RFU FAM26E (11764081_at) / Fold change /veh FAM26E (11764081_at) / RFU ISYNA1 (11749810_s_at) / Fold change /veh ISYNA1 (11749810_s_at) / RFU ACY1 (11761880_at) / Fold change /veh ACY1 (11761880_at) / RFU 11764098_at / Fold change /veh 11764098_at / RFU SAMD14 (11745864_x_at) / Fold change /veh SAMD14 (11745864_x_at) / RFU NPB (11741838_a_at) / Fold change /veh NPB (11741838_a_at) / RFU TMPRSS6 (11731388_a_at) / Fold change /veh TMPRSS6 (11731388_a_at) / RFU KRTAP10-2 (11738614_at) / Fold change /veh KRTAP10-2 (11738614_at) / RFU ARHGAP8 /// PRR5-ARHGAP8 (11727945_x_at) / Fold change /veh ARHGAP8 /// PRR5-ARHGAP8 (11727945_x_at) / RFU KRTAP5-7 /// NADSYN1 (11734609_at) / Fold change /veh KRTAP5-7 /// NADSYN1 (11734609_at) / RFU RASL12 (11751679_a_at) / Fold change /veh RASL12 (11751679_a_at) / RFU CDKN2B (11736163_a_at) / Fold change /veh CDKN2B (11736163_a_at) / RFU PRF1 (11729649_at) / Fold change /veh PRF1 (11729649_at) / RFU, ZNF638 /// ZNF638-IT1 / Fold change vs veh, ZNF638 /// ZNF638-IT1 / RFU, PANK3 / Fold change vs veh, PANK3 / RFU, SH3YL1 / Fold change vs veh, SH3YL1 / RFU, ZEB2 / Fold change vs veh, ZEB2 / RFU, NRIP1 / Fold change vs veh, NRIP1 / RFU, PTTG1IP / Fold change vs veh, PTTG1IP / RFU, CAPN2 / Fold change vs veh, CAPN2 / RFU, MED14 / Fold change vs veh, MED14 / RFU, SNORA58 / Fold change vs veh, SNORA58 / RFU, C1orf63 / Fold change vs veh, C1orf63 / RFU, LRRFIP1 / Fold change vs veh, LRRFIP1 / RFU, NDUFAF7 / Fold change vs veh, NDUFAF7 / RFU, SLC12A2 / Fold change vs veh, SLC12A2 / RFU, IBTK / Fold change vs veh, IBTK / RFU, ESF1 / Fold change vs veh, ESF1 / Fold change vs veh, TMEM50B / RFU, TAOK1 / Fold change vs veh, TAOK1 / RFU, ACBD3 / Fold change vs veh, ACBD3 / RFU, TMA16 / Fold change vs veh, TMA16 / RFU, RWDD3 / Fold change vs veh, RWDD3 / RFU, BCAT1 / Fold change vs veh, BCAT1 / RFU, EDEM3 / Fold change vs veh, EDEM3 / RFU, TMEM33 / Fold change vs veh, TMEM33 / RFU, WDR75 / Fold change vs veh, WDR75 / RFU, AHCTF1 / Fold change vs veh, AHCTF1 / RFU, TFRC / Fold change vs veh, TFRC / RFU, ZDHHC17 / Fold change vs veh, ZDHHC17 / RFU, NOM1 / Fold change vs veh, NOM1 / RFU, ARL8B / Fold change vs veh, ARL8B / RFU, ZBTB11 / Fold change vs veh, ZBTB11 / RFU, TAMM41 / Fold change vs veh, TAMM41 / RFU, KIAA1704 /// LOC100996395 / Fold change vs veh, KIAA1704 /// LOC100996395 / RFU, ING1 / Fold change vs veh, ING1 / RFU, TRMT61B / Fold change vs veh, TRMT61B / RFU, FUBP3 / Fold change vs veh, FUBP3 / RFU, TP53 / Fold change vs veh, TP53 / RFU, TNKS2 / Fold change vs veh, TNKS2 / RFU, ZFP14 / Fold change vs veh, ZFP14 / RFU, ACTR2 / Fold change vs veh, ACTR2 / RFU, PPP3R1 / Fold change vs veh, PPP3R1 / RFU, PIK3R1 / Fold change vs veh, PIK3R1 / RFU, HNRNPA1 / Fold change vs veh, HNRNPA1 / RFU, RNF170 / Fold change vs veh, RNF170 / RFU, ZNF28 / Fold change vs veh, ZNF28 / RFU, RNGTT / Fold change vs veh, RNGTT / RFU, OGT / Fold change vs veh, OGT / RFU, BRD1 / Fold change vs veh, BRD1 / RFU, MARS / Fold change vs veh, MARS / RFU, ZNF655 / Fold change vs veh, ZNF655 / RFU, FAHD1 / Fold change vs veh, FAHD1 / RFU, BDP1 / Fold change vs veh, BDP1 / RFU, LRRCC1 / Fold change vs veh, LRRCC1 / RFU, ARID1A / Fold change vs veh, ARID1A / RFU, ZNF146 / Fold change vs veh, ZNF146 / RFU, ZNF330 / Fold change vs veh, ZNF330 / RFU, GPN3 / Fold change vs veh, GPN3 / RFU, C9orf123 / Fold change vs veh, C9orf123 / RFU, N4BP2L2 / Fold change vs veh, N4BP2L2 / RFU, ARFIP1 / Fold change vs veh, ARFIP1 / RFU, FAM179B / Fold change vs veh, FAM179B / RFU, BCL10 / Fold change vs veh, BCL10 / RFU, UHRF1BP1L / Fold change vs veh, UHRF1BP1L / RFU, BET1 / Fold change vs veh, BET1 / RFU, CNOT2 / Fold change vs veh, CNOT2 / RFU, ZNF268 / Fold change vs veh, ZNF268 / Fold change vs veh, ZNF507 / RFU, DGCR2 / Fold change vs veh, DGCR2 / RFU, WDSUB1 / Fold change vs veh, WDSUB1 / Fold change vs veh, HSP90B1 /// MIR3652 / RFU, ADSS / Fold change vs veh, ADSS / RFU, GK / Fold change vs veh, GK / RFU, ZNF148 / Fold change vs veh, ZNF148 / RFU, TAF9 / Fold change vs veh, TAF9 / RFU, SLC1A5 / Fold change vs veh, SLC1A5 / RFU, SLMO2 / Fold change vs veh, SLMO2 / RFU, ABCC4 / Fold change vs veh, ABCC4 / RFU, LOC101060439 /// RAP1B / Fold change vs veh, LOC101060439 /// RAP1B / RFU, RFX7 / Fold change vs veh, RFX7 / RFU, GTPBP10 / Fold change vs veh, GTPBP10 / RFU, CNEP1R1 / Fold change vs veh, CNEP1R1 / RFU, BIVM-ERCC5 /// ERCC5 / Fold change vs veh, BIVM-ERCC5 /// ERCC5 / RFU, ILF3 / Fold change vs veh, ILF3 / RFU 11762660_at / Fold change /veh 11762660_at / RFU VCAN (11757783_s_at) / Fold change /veh VCAN (11757783_s_at) / RFU DDX43 (11728927_at) / Fold change /veh DDX43 (11728927_at) / RFU KRT8 (11758188_x_at) / Fold change /veh KRT8 (11758188_x_at) / RFU NKD1 (11759106_at) / Fold change /veh NKD1 (11759106_at) / RFU SRD5A1 (11742802_a_at) / Fold change /veh SRD5A1 (11742802_a_at) / RFU TPSAB1 /// TPSB2 (11721975_s_at) / Fold change /veh TPSAB1 /// TPSB2 (11721975_s_at) / RFU GSTM3 (11746129_a_at) / Fold change /veh GSTM3 (11746129_a_at) / RFU IL23R (11737362_x_at) / Fold change /veh IL23R (11737362_x_at) / RFU TMEM51 (11727254_a_at) / Fold change /veh TMEM51 (11727254_a_at) / RFU PIWIL2 (11732686_x_at) / Fold change /veh PIWIL2 (11732686_x_at) / RFU ORM1 (11744905_x_at) / Fold change /veh ORM1 (11744905_x_at) / RFU CCDC152 (11743942_at) / Fold change /veh CCDC152 (11743942_at) / RFU ECM1 (11717891_a_at) / Fold change /veh ECM1 (11717891_a_at) / RFU IL23R (11748794_a_at) / Fold change /veh IL23R (11748794_a_at) / RFU TNFAIP8L3 (11732012_x_at) / Fold change /veh TNFAIP8L3 (11732012_x_at) / RFU MBOAT4 (11741988_at) / Fold change /veh MBOAT4 (11741988_at) / RFU 11764193_at / Fold change /veh 11764193_at / RFU TMEM53 (11763286_at) / Fold change /veh TMEM53 (11763286_at) / RFU MAGEB2 (11727129_at) / Fold change /veh MAGEB2 (11727129_at) / RFU TMEM200A (11744735_a_at) / Fold change /veh TMEM200A (11744735_a_at) / RFU CCDC152 (11751479_a_at) / Fold change /veh CCDC152 (11751479_a_at) / RFU FAM211A (11726209_a_at) / Fold change /veh FAM211A (11726209_a_at) / RFU RGS16 (11746705_a_at) / Fold change /veh RGS16 (11746705_a_at) / RFU VCAN (11755009_s_at) / Fold change /veh VCAN (11755009_s_at) / RFU RHOB (11743442_s_at) / Fold change /veh RHOB (11743442_s_at) / RFU RGS16 (11720943_a_at) / Fold change /veh RGS16 (11720943_a_at) / RFU RGS16 (11720944_at) / Fold change /veh RGS16 (11720944_at) / RFU, VPS4B / Fold change vs veh, VPS4B / RFU, CREB1 / Fold change vs veh, CREB1 / RFU, DNAJC13 / Fold change vs veh, DNAJC13 / RFU, GNAQ / Fold change vs veh, GNAQ / RFU, CDK5R1 / Fold change vs veh, CDK5R1 / RFU, ZRANB3 / Fold change vs veh, ZRANB3 / RFU, CUL4A / Fold change vs veh, CUL4A / RFU, CCNY / Fold change vs veh, CCNY / RFU, UFL1 / Fold change vs veh, UFL1 / RFU, COG3 / Fold change vs veh, COG3 / RFU, DIAPH2 / Fold change vs veh, DIAPH2 / RFU, SKA2 / Fold change vs veh, SKA2 / RFU, AFF3 / Fold change vs veh, AFF3 / RFU, LMF1 / Fold change vs veh, LMF1 / RFU, IPO11 / Fold change vs veh, IPO11 / RFU, DFFB / Fold change vs veh, DFFB / RFU, FOXP1 / Fold change vs veh, FOXP1 / RFU, CARD8 / Fold change vs veh, CARD8 / RFU, STRN3 / Fold change vs veh, STRN3 / RFU, ADK / Fold change vs veh, ADK / RFU, RASSF2 / Fold change vs veh, RASSF2 / RFU, WIPF1 / Fold change vs veh, WIPF1 / RFU, LARP1B / Fold change vs veh, LARP1B / RFU, RASA1 / Fold change vs veh, RASA1 / RFU, RB1 / Fold change vs veh, RB1 / RFU, PPFIA1 / Fold change vs veh, PPFIA1 / RFU, MAT2A / Fold change vs veh, MAT2A / RFU, CCT5 / Fold change vs veh, CCT5 / RFU, WDR92 / Fold change vs veh, WDR92 / RFU, CUX1 / Fold change vs veh, CUX1 / RFU, TTC7A / Fold change vs veh, TTC7A / RFU, TMEM135 / Fold change vs veh, TMEM135 / RFU, DEPTOR / Fold change vs veh, DEPTOR / RFU, CPM / Fold change vs veh, CPM / RFU, DNAJB6 / Fold change vs veh, DNAJB6 / RFU, CACNA2D3 / Fold change vs veh, CACNA2D3 / RFU, DTX4 / Fold change vs veh, DTX4 / RFU, TFCP2 / Fold change vs veh, TFCP2 / RFU, GMCL1 /// GMCL1P1 / Fold change vs veh, GMCL1 /// GMCL1P1 / RFU, AEBP2 / Fold change vs veh, AEBP2 / RFU, SNHG1 /// SNORD22 /// SNORD25 /// SNORD26 /// SNORD27 /// SNORD28 /// SNORD29 /// SNORD31 / Fold change vs veh, SNHG1 /// SNORD22 /// SNORD25 /// SNORD26 /// SNORD27 /// SNORD28 /// SNORD29 /// SNORD31 / Fold change (Aza/veh), C12orf56 (ProbeSet 11735607_a_at) / Fold change (ACY-1035/veh), C12orf56 (ProbeSet 11735607_a_at) / Fold change (Aza/veh), FGFR1OP (ProbeSet 11751329_s_at) / Fold change (ACY-1035/veh), FGFR1OP (ProbeSet 11751329_s_at) / Fold change (Aza/veh), VPS36 (ProbeSet 11739960_a_at) / Fold change (ACY-1035/veh), VPS36 (ProbeSet 11739960_a_at) / RFU SYPL1 (11715823_x_at) / Fold change /veh SYPL1 (11715823_x_at) / RFU IGFBP7 (11715501_s_at) / Fold change /veh IGFBP7 (11715501_s_at) / RFU REEP3 (11722064_at) / Fold change /veh REEP3 (11722064_at) / RFU IGLL1 (11728026_x_at) / Fold change /veh IGLL1 (11728026_x_at): dose or concentration left out as unconfirmed
Settings: ProbeSet 11725901_x_at; LIST B

For `Nc1ncn([C@@H]2O[C@H](CO)[C@@H](O)[C@H]2O)c(=O)n1` [azacitidine], the “RFU, RWDD3” value was 20.92 RFU.
